Three molecules from paper PMC9854762, “Antibiofilm and Anti-Quorum-Sensing Activities of Novel Pyrazole and Pyrazolo[1,5-a]pyrimidine Derivatives as Carbonic Anhydrase I and II Inhibitors: Design, Synthesis, Radiosterilization, and Molecular Docking Studies” (Antibiotics, 2023) can be followed below.

The test system of data set [1] is A. baumannii DH-243. The data set is described as follows: Agar well-diffusion assay. Conditions: Acinetobacter baumannii. It counts as cell-based. As to the method:
(§1) The synthesized compounds were initially screened for their in vitro antibacterial activity against the different Gram-positive and Gram-negative bacteria, tested using the agar well-diffusion assay. The turbidity of the bacterial suspensions was established to the 0.5 McFarland turbidity standard. The activity was performed on TS agar plates. The bacteria were spread on the surface of the agar plates, and 10 mm wells were screwed into the agar plates. The assay was performed under aseptic conditions. An aliquot of 50 µL of each tested compound (10 mM) was added to the wells, and the plates were incubated overnight at 37 °C. Both Erythromycin and Amikacin antibiotic disks were used as positive control, while DMSO solvent was used as a negative control in this study. The diameters of inhibition zones were measured and recorded in mm. A comparative study of the synthesized compounds was determined. The experiment was performed in triplicates.

In data set [2] the test system is E. coli DH-5987. The data set is described as follows: Agar well-diffusion assay. It counts as cell-based. Particulars: Escherichia coli, DH5987, 50 µL of 10 mM per well, read-out: Diameter of Inhibition Zones (AZOI). As to the method: as §1
In data set [3] the test system is P. aeruginosa DH-5698. The data set is described as follows: Agar well-diffusion assay. Particulars: Pseudomonas aeruginosa. It counts as cell-based, Pseudomonus aeruginosa. As to the method:
as §1

The test system of data set [4] is A. baumannii DH-243. The data set is described as follows: Broth microdilution MIC/MBC. The format is cell-based, Acinetobacter baumannii. Particulars: for MIC: Acinetobacter baumannii, DH243, 24 h, read-out: MIC (Mean ± SEM); for MBC/MIC: value in brackets. The method, then: (§2) The broth microdilution method was taken as a basis to detect the MICs of pyrazole compounds against tested clinical isolates, according to the Clinical Laboratory and Standards Institute guidelines. The broth cultures were used to prepare the bacterial inoculums, and the suspensions were adjusted to the standard 0.5 McFarland turbidity. Stock solutions of the synthesized pyrazoles were prepared in pure DMSO and further serially diluted with TS broth in the concentration range from 128 µg/mL to 0.0625 µg/mL. A well containing noninoculated TS broth, free of any antimicrobial agents, was also included to ensure the medium sterility, while Erythromycin and Amikacin served as positive controls. Bacterial growth was determined by adding 20 µL of 0.5% TTC (2,3,5-triphenyltetrazolium chloride) aqueous solution. […] All experiments were repeated three times. The bactericidal effect from each concentration of the pyrazole and pyrazolo[1,5-a]pyrimidine derivatives showing growth inhibition was further studied. For this study, a loopful of 5 µL was taken from each no-visible growth tube and streaked onto plates of TS agar.

For data set [5], the system named is E. coli DH-5987. The data set is described as follows: Broth microdilution MIC/MBC. Conditions: for MBC/MIC: value in brackets; for MIC: read-out: MIC (Mean ± SEM). The format is cell-based, Escherichia coli. As to the method: as §2
Data set [6] has as its system P. aeruginosa DH-5698. Briefly: Broth microdilution MIC/MBC. It counts as cell-based, Pseudomonus aeruginosa. Conditions: for MIC: Pseudomonas aeruginosa, DH5698, 24 h, read-out: MIC (Mean ± SEM); for MBC/MIC: value in brackets. As to the method: as §2
In data set [7] the test system is E. faecalis DH-5478. The data set is described as follows: Agar well-diffusion assay. The format is cell-based. Conditions: Enterococcus faecalis, DH5478; E. faecalis DH-5478; 50 µL of 10 mM per well; read-out: Diameter of Inhibition Zones (AZOI). The method, then: as §1
Data set [8] relates to S. aureus DH-432. Briefly: Agar well-diffusion assay. Particulars: Staphylococcus aureus, DH432; S. aureus DH-432; 50 µL of 10 mM per well; read-out: Diameter of Inhibition Zones (AZOI). The format is cell-based. As to the method:
as §1

The subject of data set [9] is S. pyogenes DH-3467. The data set is described as follows: Agar well-diffusion assay. The format is cell-based. Conditions: Streptococcus pyogenes, DH3467; S. pyogenes DH-3467; 50 µL of 10 mM per well; read-out: Diameter of Inhibition Zones (AZOI). As to the method:
as §1

The test system of data set [10] is E. faecalis DH-5478. Briefly: Broth microdilution MIC/MBC. It counts as cell-based, Enterococcus faecalis. Particulars: for MIC: Enterococcus faecalis, DH5478, 24 h, read-out: MIC (Mean ± SEM); for MBC/MIC: value in brackets. As to the method: as §2
Data set [11] has as its system S. aureus DH-432. The data set is described as follows: Broth microdilution MIC/MBC. It counts as cell-based, Staphylococcus aureus. Conditions: for MIC: Staphylococcus aureus, DH432, 24 h, read-out: MIC (Mean ± SEM); for MBC/MIC: value in brackets. As to the method:
as §2

Data set [12] relates to S. pyogenes DH-3467. The data set is described as follows: Broth microdilution MIC/MBC. Conditions: for MIC: Streptococcus pyogenes, DH3467, 24 h, read-out: MIC (Mean ± SEM); for MBC/MIC: value in brackets. The format is cell-based, Streptococcus pyogenes. The method, then: as §2
Setting [13] is: Escherichia coli, DH5987, E. coli DH-5987, 24 h.
The mark [14] stands for this setting: DH243, A. baumannii DH-243, 50 µL of 10 mM per well, read-out: Diameter of Inhibition Zones (AZOI).
Where [15] appears, read: DH5698, P. aeruginosa DH-5698, 50 µL of 10 mM per well, read-out: Diameter of Inhibition Zones (AZOI).

Each structure is given as a SMILES string. Converted amounts (≈) assume the structure as drawn. Read-outs that look alike come from different tables or passages of the source.

Consider `NCC[C@H](O)C(=O)N[C@@H]1C[C@H](N)[C@@H](O[C@H]2O[C@H](CN)[C@@H](O)[C@H](O)[C@H]2O)[C@H](O)[C@H]1O[C@H]1O[C@H](CO)[C@@H](O)[C@H](N)[C@H]1O` [AK, Amikacin, reference compound], for which the zone of inhibition at 10000 µM in the data set on A. baumannii DH-243 [1] (DH243, read-out: Diameter of Inhibition Zones (AZOI)) was determined as 13 mm; with E. coli DH-5987 [2], 11 mm; in the data set with P. aeruginosa DH-5698 [3] (DH5698, read-out: Diameter of Inhibition Zones (AZOI)), 14 mm. Besides, the figures for the MIC in the data set with A. baumannii DH-243 [4], with E. coli DH-5987 [5] (setting [13]) and in the data set on P. aeruginosa DH-5698 [6] were 128 ± 0.2 µg/mL (≈ 219 µM), 32 µg/mL (≈ 54.6 µM) and 128 ± 0.1 µg/mL (≈ 219 µM), respectively. Besides, the MBC/MIC in the data set on A. baumannii DH-243 [4], in the data set on E. coli DH-5987 [5] (E. coli DH-5987) and in the data set on P. aeruginosa DH-5698 [6] was 4 throughout. Besides, in the data set on E. coli DH-5987 [5] (E. coli DH-5987, 24 h), the “MIC (Mean ± SEM)” value came out at 32 ± 0.2 µg/mL (≈ 54.6 µM). This molecule had an MBC in the data set with E. coli DH-5987 [5] (Escherichia coli, DH5987, E. coli) of 128 µg/mL (≈ 219 µM).

With `CCOC(=O)c1ccc(N=Nc2c(N)nn(-c3ccccc3)c2N)cc1` [Compound 3b, Ethyl 4-((3,5-diamino-1-phenyl-1H-pyrazol-4-yl)diazenyl)benzoate], the melting point was in the range of 144 to 146 °C. The zone of inhibition at 10000 µM in the data set with A. baumannii DH-243 [1] (setting [14]) was determined as 23.1 mm. Also, the zone of inhibition at 10000 µM in the data set on E. coli DH-5987 [2] came out at 26.9 mm. Further, the zone of inhibition at 10000 µM with E. faecalis DH-5478 [7] was found to be 24.4 mm. For the same molecule, the zone of inhibition at 10000 µM in the data set on S. aureus DH-432 [8] turned out to be 25.2 mm. For the same molecule, the zone of inhibition at 10000 µM in the data set on S. pyogenes DH-3467 [9] is 24.7 mm. Further, in the data set with P. aeruginosa DH-5698 [3] (setting [15]), the zone of inhibition at 10000 µM was determined as 25.1 mm. Moreover, in the data set on E. faecalis DH-5478 [10], the minimum inhibitory concentration (MIC) stood at 0.75 ± 0.2 µg/mL (≈ 2.14 µM) and the MBC/MIC came out at 0.5. In the data set on S. aureus DH-432 [11], the MIC worked out at 0.5 ± 0.1 µg/mL (≈ 1.43 µM) and the MBC/MIC is listed as 1. Besides, in the data set on S. pyogenes DH-3467 [12], the MIC worked out at 0.75 ± 0.4 µg/mL (≈ 2.14 µM) and the MBC/MIC came out at 1. In the data set with A. baumannii DH-243 [4], the MIC is 1 ± 0.3 µg/mL (≈ 2.85 µM) and the MBC/MIC was determined as 0.5. Also, the MBC/MIC in the data set on E. coli DH-5987 [5] (E. coli DH-5987) came to 1. Further, the MIC in the data set on E. coli DH-5987 [5] (setting [13]) came to 0.5 ± 0.2 µg/mL (≈ 1.43 µM). For the same molecule, in the data set with P. aeruginosa DH-5698 [6], the MIC was 1 ± 0.2 µg/mL (≈ 2.85 µM) and the MBC/MIC is listed as 0.5.

The molecule `CCOC(=O)c1ccc(N=Nc2c(N)nn(C(N)=S)c2N)cc1` [Compound 3c, Ethyl 4-((3,5-diamino-1-carbamothioyl-1H-pyrazol-4-yl)diazenyl)benzoate] gave a melting point of 280 to 282 °C. In the data set with A. baumannii DH-243 [1] (setting [14]), the zone of inhibition at 10000 µM turned out to be 22.5 mm. Besides, in the data set on E. coli DH-5987 [2], the zone of inhibition at 10000 µM was 24.7 mm. For the same molecule, the zone of inhibition at 10000 µM in the data set on E. faecalis DH-5478 [7] worked out at 21.3 mm. Further, the zone of inhibition at 10000 µM in the data set on S. aureus DH-432 [8] came out at 23.8 mm. The zone of inhibition at 10000 µM in the data set with S. pyogenes DH-3467 [9] stood at 22.6 mm. Also, the zone of inhibition at 10000 µM in the data set on P. aeruginosa DH-5698 [3] (setting [15]) stood at 23.2 mm. In addition, in the data set with E. faecalis DH-5478 [10], the minimal inhibitory concentration (MIC) came out at 1 ± 0.3 µg/mL (≈ 3 µM) and the MBC/MIC is 1. In the data set with S. aureus DH-432 [11], the MIC was found to be 0.75 ± 0.2 µg/mL (≈ 2.25 µM) and the MBC/MIC stood at 1. In the data set with S. pyogenes DH-3467 [12], the MIC stood at 0.75 ± 0.2 µg/mL (≈ 2.25 µM) and the MBC/MIC was found to be 0.5. In the data set on A. baumannii DH-243 [4], the MIC amounted to 2 ± 0.2 µg/mL (≈ 6 µM) and the MBC/MIC came to 1. The molecule also registered an MBC/MIC against E. coli DH-5987 [5] (E. coli DH-5987) of 0.5. Besides, in the data set with E. coli DH-5987 [5] (setting [13]), the MIC came out at 0.75 ± 0.5 µg/mL (≈ 2.25 µM). Besides, in the data set on P. aeruginosa DH-5698 [6], the MIC is 1 ± 0.3 µg/mL (≈ 3 µM) and the MBC/MIC is reported as 1.
